Common to all, as to format: biochemical
The target in one experiment is T1, ROCK I (AA 6-553) (Homo sapiens, UniProt Q13464).
T1 construct: ROCK I (AA 6-553)
As to the kind of experiment: ROCK inhibition assay, standard coupled enzyme system ("Enzyme"). The conditions noted are these: enzyme-linked assay. The gist of the method:
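ROCK I (AA 6-553) at 45 nM and 30 °C with 45 μM ATP and 200 μM peptide, in 100 mM HEPES pH 7.5, 10 mM MgCl2, 25 mM NaCl, 2 mM DTT, 1.5% DMSO. ADP output read by a PK/LDH coupled system: 2.5 mM PEP, 350 μM NADH, 30 μg/ml PK, 10 μg/ml LDH.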

The target of another experiment is T2, JAK3 (Homo sapiens, UniProt P52333).
T2 sequence (P52333 1-1124): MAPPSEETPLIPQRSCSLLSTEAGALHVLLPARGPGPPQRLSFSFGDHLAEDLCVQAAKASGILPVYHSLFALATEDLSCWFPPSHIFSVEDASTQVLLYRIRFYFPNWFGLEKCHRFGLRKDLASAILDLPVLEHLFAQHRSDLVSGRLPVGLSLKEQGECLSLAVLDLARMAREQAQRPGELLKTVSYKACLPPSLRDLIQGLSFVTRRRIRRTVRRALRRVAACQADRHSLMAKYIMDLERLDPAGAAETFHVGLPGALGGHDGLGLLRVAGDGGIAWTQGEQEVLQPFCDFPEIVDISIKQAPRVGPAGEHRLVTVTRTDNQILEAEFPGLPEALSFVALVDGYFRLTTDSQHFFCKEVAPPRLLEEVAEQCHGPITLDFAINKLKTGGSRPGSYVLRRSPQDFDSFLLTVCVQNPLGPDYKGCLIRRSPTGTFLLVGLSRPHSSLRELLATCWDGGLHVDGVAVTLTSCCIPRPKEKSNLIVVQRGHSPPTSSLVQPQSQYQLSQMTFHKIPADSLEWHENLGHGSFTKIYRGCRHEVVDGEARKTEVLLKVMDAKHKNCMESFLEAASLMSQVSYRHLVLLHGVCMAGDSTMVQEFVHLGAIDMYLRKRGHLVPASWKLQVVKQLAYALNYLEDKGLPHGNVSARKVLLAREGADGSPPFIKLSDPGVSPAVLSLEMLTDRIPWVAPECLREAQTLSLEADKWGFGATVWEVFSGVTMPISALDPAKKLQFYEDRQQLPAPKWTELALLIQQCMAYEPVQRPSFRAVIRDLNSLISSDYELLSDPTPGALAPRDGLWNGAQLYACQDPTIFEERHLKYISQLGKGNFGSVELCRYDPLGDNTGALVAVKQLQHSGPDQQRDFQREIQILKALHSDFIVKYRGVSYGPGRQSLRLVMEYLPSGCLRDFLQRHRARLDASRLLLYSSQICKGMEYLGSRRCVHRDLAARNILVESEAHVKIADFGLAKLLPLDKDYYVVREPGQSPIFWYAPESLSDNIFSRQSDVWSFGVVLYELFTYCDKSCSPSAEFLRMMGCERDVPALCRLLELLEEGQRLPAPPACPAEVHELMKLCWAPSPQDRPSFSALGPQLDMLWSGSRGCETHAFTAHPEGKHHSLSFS
As to the kind of experiment: JAK3 inhibition assay (standard radioactive enzyme assay). The conditions noted are these: average Ki if more than one value determined.

The target of the next experiment is JAK2 (Homo sapiens, UniProt O60674). As to the kind of experiment: JAK2 inhibition assay (radioactive enzyme assay, as for JAK3). The conditions noted are these: average Ki if more than one value determined. The gist of the method: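 Both kinases: poly(Glu)4Tyr substrate in 100 mM HEPES pH 7.4, 10 mM MgCl2, 1 mM DTT. Run 20 min at 25° C, TCA stop, filter-bound ³³P counted, Ki(app) fitted after background subtraction. JAK3: final [γ-³³P]ATP 5 μM, enzyme added as 2 nM solution. JAK2: final poly(Glu)4Tyr 15 μM, final ATP 12 μM.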

Experiment [1] deals with T3, full length Aurora-A (AA 1-403) (Homo sapiens, UniProt O14965).
T3 construct: full length Aurora-A (AA 1-403)
T3 sequence (O14965 1-403): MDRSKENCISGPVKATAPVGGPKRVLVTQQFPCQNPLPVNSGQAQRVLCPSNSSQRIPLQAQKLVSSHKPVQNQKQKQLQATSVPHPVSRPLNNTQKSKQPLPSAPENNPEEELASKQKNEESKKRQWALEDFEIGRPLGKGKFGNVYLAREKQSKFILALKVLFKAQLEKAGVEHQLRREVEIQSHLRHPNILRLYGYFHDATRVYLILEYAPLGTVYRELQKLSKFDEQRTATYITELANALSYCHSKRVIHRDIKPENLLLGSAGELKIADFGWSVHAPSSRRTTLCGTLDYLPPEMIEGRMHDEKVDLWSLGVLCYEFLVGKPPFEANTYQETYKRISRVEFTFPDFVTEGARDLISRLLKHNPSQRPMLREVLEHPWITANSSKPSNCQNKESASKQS
As to the kind of experiment: Aurora-A inhibition assay, standard coupled enzyme system. The conditions noted are these: average Ki if more than one value determined.

As usually defined, the Ki is a measure of affinity in units of concentration, obtained from inhibition or displacement.

Where only a bound is given, the exact number is not on record here.

JAK2, sequence (O60674 whole entry, species assumed): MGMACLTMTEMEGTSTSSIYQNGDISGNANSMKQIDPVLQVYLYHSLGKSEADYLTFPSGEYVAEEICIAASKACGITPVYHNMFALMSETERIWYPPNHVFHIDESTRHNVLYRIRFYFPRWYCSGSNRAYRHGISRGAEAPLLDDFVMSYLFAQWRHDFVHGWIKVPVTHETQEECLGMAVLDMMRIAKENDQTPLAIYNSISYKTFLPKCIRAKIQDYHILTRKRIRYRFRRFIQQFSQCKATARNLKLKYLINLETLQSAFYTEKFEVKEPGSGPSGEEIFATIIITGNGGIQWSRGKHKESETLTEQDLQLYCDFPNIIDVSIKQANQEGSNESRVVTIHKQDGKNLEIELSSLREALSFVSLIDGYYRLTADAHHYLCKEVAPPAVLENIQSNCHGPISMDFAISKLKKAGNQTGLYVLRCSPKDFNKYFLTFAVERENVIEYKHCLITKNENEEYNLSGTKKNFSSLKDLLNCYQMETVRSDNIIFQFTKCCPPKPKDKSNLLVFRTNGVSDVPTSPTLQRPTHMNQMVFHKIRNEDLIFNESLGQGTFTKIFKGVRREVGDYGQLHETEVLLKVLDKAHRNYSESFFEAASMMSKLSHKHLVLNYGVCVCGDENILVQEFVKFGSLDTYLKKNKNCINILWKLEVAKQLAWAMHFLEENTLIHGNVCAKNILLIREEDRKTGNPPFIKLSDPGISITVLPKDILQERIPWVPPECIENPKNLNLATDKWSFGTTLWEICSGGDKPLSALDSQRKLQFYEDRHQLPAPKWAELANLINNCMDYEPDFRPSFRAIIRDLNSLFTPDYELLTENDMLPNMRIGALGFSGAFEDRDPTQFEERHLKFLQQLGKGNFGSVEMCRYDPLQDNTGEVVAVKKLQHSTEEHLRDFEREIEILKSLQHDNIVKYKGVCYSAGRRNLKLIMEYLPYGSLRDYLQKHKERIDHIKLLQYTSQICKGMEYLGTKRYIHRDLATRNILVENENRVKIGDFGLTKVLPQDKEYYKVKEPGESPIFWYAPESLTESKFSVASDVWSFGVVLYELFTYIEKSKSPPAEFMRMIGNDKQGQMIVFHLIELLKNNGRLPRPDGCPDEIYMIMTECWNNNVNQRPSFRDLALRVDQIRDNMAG
T1 sequence (Q13464 6-553, species assumed): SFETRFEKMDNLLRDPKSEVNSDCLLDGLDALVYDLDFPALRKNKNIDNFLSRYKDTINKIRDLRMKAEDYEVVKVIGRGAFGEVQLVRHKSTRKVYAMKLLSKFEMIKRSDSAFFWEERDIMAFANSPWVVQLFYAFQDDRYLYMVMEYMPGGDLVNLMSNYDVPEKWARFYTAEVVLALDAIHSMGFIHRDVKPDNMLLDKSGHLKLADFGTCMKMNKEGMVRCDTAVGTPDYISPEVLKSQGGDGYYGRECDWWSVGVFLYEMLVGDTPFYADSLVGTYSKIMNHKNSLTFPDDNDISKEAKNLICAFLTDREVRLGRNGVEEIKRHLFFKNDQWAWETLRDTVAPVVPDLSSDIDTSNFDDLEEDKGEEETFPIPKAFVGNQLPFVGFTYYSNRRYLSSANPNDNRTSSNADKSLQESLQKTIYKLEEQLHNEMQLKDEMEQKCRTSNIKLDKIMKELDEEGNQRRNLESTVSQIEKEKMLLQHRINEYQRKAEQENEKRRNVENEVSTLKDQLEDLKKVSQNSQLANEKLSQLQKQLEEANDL

Turning to `COC(=O)c1ccc(NCc2ccccc2)nc1-c1c[nH]c2ncc(Cl)cc12` [Compound 45], the Ki at ROCK I (AA 6-553) was 500 to 5000 nM; at JAK3, less than 500 nM; at JAK2 it was less than 500 nM; in experiment [1], less than 500 nM.
For `CC(=O)N1[C@H](C)CN(c2cccc(-c3c[nH]c4ncc(F)cc34)n2)C[C@@H]1C` [Compound 50], the inhibitory constant (Ki) on ROCK I (AA 6-553) was less than 500 nM; at JAK3, less than 500 nM; at JAK2, less than 500 nM; in experiment [1], 500 to 5000 nM.
Turning to `COC(=O)Nc1cnc2[nH]cc(-c3cccc(N4C[C@@H](C)N(C(C)=O)[C@@H](C)C4)n3)c2c1` [Compound 66], the inhibition constant (Ki) is 500 to 5000 nM on ROCK I (AA 6-553), less than 500 nM at JAK3, less than 500 nM at JAK2 and 500 to 5000 nM in experiment [1].
Regarding `CC(=O)N1[C@H](C)CN(c2ccc(-c3nnn[nH]3)c(-c3c[nH]c4ncc(Cl)cc34)n2)C[C@@H]1C` [Compound 110], the inhibition constant Ki (at ROCK I (AA 6-553); at JAK3; on JAK2; in experiment [1]) was 500 to 5000 nM in each case.
Consider `C=C(C)C(=O)Nc1cnc2[nH]cc(-c3cccc(N4C[C@@H](C)N(C(C)=O)[C@@H](C)C4)n3)c2c1` [Compound 154], for which the Ki is 500 to 5000 nM on ROCK I (AA 6-553), less than 500 nM on JAK3, less than 500 nM at JAK2 and 500 to 5000 nM in experiment [1].
On to `CC(=O)N1[C@H](C)CN(c2cccc(-c3c[nH]c4ncc(NC(=O)C5CCCC5)cc34)n2)C[C@@H]1C` [Compound 166], for which the Ki on ROCK I (AA 6-553) is 500 to 5000 nM; on JAK3, less than 500 nM; on JAK2 it was less than 500 nM; in experiment [1], 500 to 5000 nM.
Turning to `CN(C)c1cccc(-c2c[nH]c3ncc(Cl)cc23)n1` [Compound 122], the inhibition constant Ki on ROCK I (AA 6-553) was 500 to 5000 nM; at JAK3 it was less than 500 nM; at JAK2, less than 500 nM; in experiment [1], 500 to 5000 nM.
With `Fc1cnc2[nH]cc(-c3cccc(NCc4ccccc4)n3)c2c1` [Compound 48], the Ki is 500 to 5000 nM at ROCK I (AA 6-553), less than 500 nM at JAK3, less than 500 nM on JAK2 and less than 500 nM in experiment [1].
In the case of `CC(=O)N1[C@H](C)CN(c2nc(-c3c[nH]c4ncc(Cl)cc34)ccc2C#N)C[C@@H]1C` [Compound 92], the Ki (on ROCK I (AA 6-553); at JAK3; on JAK2; in experiment [1]) was less than 500 nM each time.
With `C[C@H](CO)Nc1cccc(-c2c[nH]c3ncc(Cl)cc23)n1` [Compound 102], the inhibition constant (Ki) was 500 to 5000 nM at ROCK I (AA 6-553), less than 500 nM on JAK3, less than 500 nM at JAK2 and 500 to 5000 nM in experiment [1].
As to `Cc1cnc2[nH]cc(-c3cccc(NCc4ccccc4)n3)c2c1` [Compound 39], the inhibitory constant (Ki) is 500 to 5000 nM at ROCK I (AA 6-553), less than 500 nM at JAK3, less than 500 nM on JAK2 and less than 500 nM in experiment [1].
For `CC(=O)N1[C@H](C)CN(c2cccc(-c3c[nH]c4ncc(NC(=O)CCCN5CCOCC5)cc34)n2)C[C@@H]1C` [Compound 153], the Ki on ROCK I (AA 6-553) is 500 to 5000 nM; at JAK3 it was less than 500 nM; at JAK2 it was less than 500 nM; in experiment [1], 500 to 5000 nM.
As for `CC(=O)N1[C@H](C)CN(c2cccc(-c3c[nH]c4ncc(C(=O)OC(C)C)cc34)n2)C[C@@H]1C` [Compound 53], the inhibitory constant (Ki) (at ROCK I (AA 6-553); on JAK3; on JAK2; in experiment [1]) was less than 500 nM in each case.
As to `CC(C)CNc1cc(C#N)cc(-c2c[nH]c3ncc(Cl)cc23)n1` [Compound 150], the Ki on ROCK I (AA 6-553) is 500 to 5000 nM; on JAK3, less than 500 nM; at JAK2 it was less than 500 nM; in experiment [1], 500 to 5000 nM.
Take `CNc1cnc2[nH]cc(-c3cccc(N4C[C@@H](C)N(C(C)=O)[C@@H](C)C4)n3)c2c1` [Compound 159]: the inhibition constant Ki at ROCK I (AA 6-553) was 500 to 5000 nM; on JAK3, less than 500 nM; at JAK2 it was less than 500 nM; in experiment [1], 500 to 5000 nM.
On to `C=C/C=C/C(=O)Nc1cnc2[nH]cc(-c3cccc(N4C[C@@H](C)N(C(C)=O)[C@@H](C)C4)n3)c2c1` [Compound 191], for which the inhibitory constant (Ki) was less than 500 nM on ROCK I (AA 6-553), less than 500 nM on JAK3, less than 500 nM at JAK2 and 500 to 5000 nM in experiment [1].
With `CC(=O)N1[C@H](C)CN(c2cccc(-c3c[nH]c4ncc(NC(=O)c5cccc(C)c5)cc34)n2)C[C@@H]1C` [Compound 168], the Ki is 500 to 5000 nM at ROCK I (AA 6-553), less than 500 nM at JAK3, less than 500 nM on JAK2 and 500 to 5000 nM in experiment [1].
Take `CC(=O)N1[C@H](C)CN(c2cccc(-c3c[nH]c4ncc(NC(=O)c5nc[nH]n5)cc34)n2)C[C@@H]1C` [Compound 190]: the Ki was 500 to 5000 nM at ROCK I (AA 6-553), less than 500 nM on JAK3, less than 500 nM at JAK2 and 500 to 5000 nM in experiment [1].
In the case of `CCOC(=O)CCC(=O)Nc1cnc2[nH]cc(-c3cccc(N4C[C@@H](C)N(C(C)=O)[C@@H](C)C4)n3)c2c1` [Compound 119], the inhibition constant Ki at ROCK I (AA 6-553) is 500 to 5000 nM; at JAK3 it was less than 500 nM; at JAK2, less than 500 nM; in experiment [1], 500 to 5000 nM.
Take `CC(=O)N1[C@H](C)CN(c2cccc(-c3c[nH]c4ncc(NC(=O)c5ccccc5F)cc34)n2)C[C@@H]1C` [Compound 172]: the inhibition constant Ki is less than 500 nM on ROCK I (AA 6-553), less than 500 nM on JAK3, less than 500 nM at JAK2 and 500 to 5000 nM in experiment [1].
As to `CC(=O)N1CCCN(c2cccc(-c3c[nH]c4ncc(F)cc34)n2)CC1` [Compound 49], the inhibition constant (Ki) was 500 to 5000 nM at ROCK I (AA 6-553), less than 500 nM on JAK3, less than 500 nM on JAK2 and 500 to 5000 nM in experiment [1].
With `CC(=O)Nc1cnc2[nH]cc(-c3cccc(N4C[C@@H](C)N(C(C)=O)[C@@H](C)C4)n3)c2c1` [Compound 113], the inhibition constant (Ki) is 500 to 5000 nM at ROCK I (AA 6-553), less than 500 nM at JAK3, less than 500 nM at JAK2 and 500 to 5000 nM in experiment [1].
Turning to `COCC(=O)Nc1cnc2[nH]cc(-c3cccc(N4C[C@@H](C)N(C(C)=O)[C@@H](C)C4)n3)c2c1` [Compound 170], the inhibition constant Ki on ROCK I (AA 6-553) was 500 to 5000 nM; at JAK3, less than 500 nM; on JAK2, less than 500 nM; in experiment [1], 500 to 5000 nM.
Turning to `CC(=O)N1CCCN(c2cccc(-c3c[nH]c4ncc(C(=O)NCCN5CCOCC5)cc34)n2)CC1` [Compound 124], the inhibition constant Ki on ROCK I (AA 6-553) is 500 to 5000 nM; at JAK3, less than 500 nM; at JAK2, less than 500 nM; in experiment [1], 500 to 5000 nM.
As to `CC(=O)N1[C@H](C)CN(c2cccc(-c3c[nH]c4ncc(NC(=O)C(C)C)cc34)n2)C[C@@H]1C` [Compound 117], the Ki at ROCK I (AA 6-553) is 500 to 5000 nM; on JAK3, less than 500 nM; on JAK2 it was less than 500 nM; in experiment [1], 500 to 5000 nM.
Turning to `CNC(=O)c1cnc2[nH]cc(-c3cccc(N4C[C@@H](C)N(C(C)=O)[C@@H](C)C4)n3)c2c1` [Compound 59], the Ki was 500 to 5000 nM at ROCK I (AA 6-553), less than 500 nM on JAK3, less than 500 nM on JAK2 and 500 to 5000 nM in experiment [1].

Values taken from patent US8501446B2 (Vertex Pharmaceuticals Incorporated, priority 2004, dated 2013).
